Literature values, collected in patent US20050233013A1, “Methods for enhancing the transport of glucose for balancing blood sugar levels” (priority 2004, published 2005).

Test system: pancreatic beta cell
Settings: micromolar concentrations; glucose dependent; Sauvaire et al, Diabetes 47:206 (1998)

In the case of `C[C@@H]([C@H](C)O)[C@H](N)C(=O)O` [major isomer (2S, 3R, 4S), (2S, 3R, 4S)-4-hydroxyisoleucine], the glucose-induced insulin secretion is given as “stimulate glucose-induced insulin secretion”.
